Assay results published in patent publication US9446267B2, “Products comprising a flavoring agent composition” (SYMRISE AG, priority 2009, dated 2016).
Where two headings read alike, the source gives them in different places.

How the values were obtained:
[1] = L-menthol given a strength of 100; cited from earlier work
[2] = Sensorial assessment of intensity and duration of the cooling sensation of freshness of toothpaste; assay type: in vivo; settings: for intensity of coolness perceived: scale of 0 to 10, toothpaste with 1.2 wt. % flavoring composition of Example 1.2 containing 0.5 wt. % cooling agent; for duration of the cooling sensation of freshness: teeth cleaning compound / toothpaste, in words
Description: The proportion of menthane carboxylic acid-N-(4-methoxyphenyl)-amide (WS-12) in the 1st preparation of Example 1.2 was replaced by menthane-3-carboxylic acid-N-ethyl amide (WS-3).
The flavoring agent composition obtained was likewise incorporated into a standard toothpaste mass with a silicic acid base in a concentration of 1.2 wt. %, in relation to the overall weight of the resultant toothpaste.
(§1) The toothpaste prepared in this way was tested by a panel of sensorially trained experts under usage conditions and compared with the toothpaste containing menthane carboxylic acid-N-(4-methoxyphenyl)-amide (WS-12) according to the 1st formulation of Example 1.2 in respect of the bitter perception and the duration of the cooling sensation of freshness.
The abscissa of FIG. 1 gives the time in minutes elapsing since cleaning of the teeth with the respective toothpaste.
The intensity of coolness perceived was rated on a scale of 0 to 10, with a value of “0” corresponding to the lowest or no intensity of coolness perceived and a value of “[…]” corresponding to the highest intensity of coolness perceived.

[3] = Sensorial assessment of the bitter-sharp note of menthol in toothpaste by a panel of trained experts; assay type: in vivo; settings: for bitter-sharp note of the menthol / bitter perception: flavoring agent composition at 1.2 wt. % in toothpaste, usage conditions, expert panel
Description: The flavoring agent compositions obtained in this way were in each case incorporated into a respective standard toothpaste mass with a silicic acid basis in a concentration of 1.2 wt. %, in relation to the overall weight of the resulting toothpaste. The toothpastes were tested by a panel of sensorially trained experts under usage conditions. […] Without the use of anethole in the 2nd formulation the bitter-sharp note clearly emerged and the taste result was perceived overall to be unacceptable.
The flavoring agent compositions obtained in this way were in each case incorporated into a respective standard toothpaste mass with a silicic acid basis in a concentration of 1.2 wt. %, in relation to the overall weight of the resulting toothpaste. The toothpastes were tested by a panel of sensorially trained experts under usage conditions.
as §1
The flavoring agent composition obtained in this way was incorporated into a standard toothpaste mass with a silicic acid base in a concentration of 1.2 wt. %, in relation to the overall weight of the resulting toothpaste. The toothpaste was tested by a panel of sensorially trained experts under usage conditions. […] Since through the use of menthane carboxylic acid-N-(4-methoxyphenyl)-amide (WS-12) in combination with the further flavoring agents with a log-Kow value in the range of 1.5-5 (I-menthyl acetate, 1,8-cineole, cinnamaldehyde, and abovementioned corresponding proportions of peppermint oils) a strong reduction in bitterness (of the menthol) was achieved, it was advantageously possible to dispense with the use of anethole to reduce the bitterness. Apart from a pleasant, distinctly fresh, long-lasting taste impression, the toothpaste was also able to impart a distinct, sweet cinnamon note as a result of the proportion of cinnamaldehyde.
The flavoring agent compositions according to Example 4.1 (for a teeth cleaning compound for comparative purposes) and Example 4.2 (for a teeth cleaning compound according to the invention) were in each case incorporated with a concentration of 1.2 wt. %, in relation to the overall weight of the resulting toothpaste into a respective toothpaste mass, containing a proportion of 65 wt. % sodium bicarbonate. […]

[4] = cited from earlier work
Solubility of WS-12 = assay type: physicochemical; settings: in words
Source text: In order to bring about the masking of the menthol to a sufficient extent, WS-12 must be dissolved in the flavoring agent composition of the teeth cleaning compound in a sufficient quantity. Our own preliminary investigations have shown that in certain conventional flavoring agent compositions the solubility of the WS-12 is so low that only an insufficient masking (reduction or decrease) in the negative taste impressions of the menthol can be achieved.

cold receptor TRPM8 = cold receptor TRPM8 (Homo sapiens, UniProt Q7Z2W7); settings: cited from earlier work
Chain of cold receptor TRPM8 (Q7Z2W7 whole entry): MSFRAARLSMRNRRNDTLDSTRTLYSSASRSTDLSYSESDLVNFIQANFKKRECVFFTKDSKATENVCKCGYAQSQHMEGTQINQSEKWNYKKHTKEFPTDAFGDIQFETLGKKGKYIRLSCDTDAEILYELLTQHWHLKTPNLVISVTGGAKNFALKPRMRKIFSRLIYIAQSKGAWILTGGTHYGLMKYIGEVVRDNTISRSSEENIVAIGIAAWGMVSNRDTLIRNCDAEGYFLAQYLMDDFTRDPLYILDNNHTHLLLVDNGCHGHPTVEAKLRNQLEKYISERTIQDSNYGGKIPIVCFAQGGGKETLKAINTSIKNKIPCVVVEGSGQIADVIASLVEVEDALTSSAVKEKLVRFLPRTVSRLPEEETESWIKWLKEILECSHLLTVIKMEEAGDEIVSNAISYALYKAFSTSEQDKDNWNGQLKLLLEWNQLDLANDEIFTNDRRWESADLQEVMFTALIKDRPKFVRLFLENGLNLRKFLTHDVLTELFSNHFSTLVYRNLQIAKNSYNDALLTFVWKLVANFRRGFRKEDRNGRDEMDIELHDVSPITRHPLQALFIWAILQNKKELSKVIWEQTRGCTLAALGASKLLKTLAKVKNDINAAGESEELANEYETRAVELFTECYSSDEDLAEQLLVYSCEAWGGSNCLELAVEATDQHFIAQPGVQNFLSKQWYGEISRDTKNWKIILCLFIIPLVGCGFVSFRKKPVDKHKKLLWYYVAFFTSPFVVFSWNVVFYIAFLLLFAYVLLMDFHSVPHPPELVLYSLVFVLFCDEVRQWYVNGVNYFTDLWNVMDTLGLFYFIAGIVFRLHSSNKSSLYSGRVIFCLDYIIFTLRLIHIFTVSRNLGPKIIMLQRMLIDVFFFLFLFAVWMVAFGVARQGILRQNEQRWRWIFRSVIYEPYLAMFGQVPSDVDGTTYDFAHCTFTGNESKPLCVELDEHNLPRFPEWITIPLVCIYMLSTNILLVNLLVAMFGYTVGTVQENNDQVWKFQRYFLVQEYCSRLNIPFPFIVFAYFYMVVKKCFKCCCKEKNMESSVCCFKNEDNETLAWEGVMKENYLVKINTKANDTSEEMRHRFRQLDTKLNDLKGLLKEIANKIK

[5] = on the philtrum fold (upper lip); cited from earlier work

SMILES | relative cooling strength compared with L-menthol [1] | intensity of coolness perceived ([2]; after 35 minutes) | duration of the cooling sensation of freshness [2] | bitter-sharp note of the menthol / bitter perception [3] | also measured
CCOC(=O)CNC(=O)C1CC(C)CCC1C(C)C [WS-5, N^α-(L-menthane carbonyl)-glycine ethyl ester] | 400 |  |  |  | 
CC(C)[C@@H]1CC[C@@H](C)C[C@H]1O [L-menthol] | 100 |  |  |  | 
CCNC(=O)C1CC(C)CCC1C(C)C [WS-3, L-menthane carboxylic acid-N-ethyl amide] | 150 | 0 | only for a relatively short time | hardly reduced | reduction or masking of the bitterness or sharpness caused by menthol ([3]; addition to a conventional teeth cleaning compound containing menthol): did not lead to a significant reduction
COc1ccc(NC(=O)C2CC(C)CCC2C(C)C)cc1 (stereo not shown) [WS-12, menthane carboxylic acid-N-(4-methoxyphenyl)-amide] | 150 | 3 | comparatively long-lasting | significantly reduced | duration of cooling effect on the upper lip ([4]; remaining on the upper lip): up to half an hour; cooling effect compared with WS-5 ([4]; upper lip): lower than WS-5; intensity of coolness perceived ([2]; after 60 minutes): ~1.5; solubility (Solubility of WS-12): relatively not readily soluble; effect on the TRPM8 cold receptor (cold receptor TRPM8): stronger effect than WS-5; effect on the TRPM8 cold receptor (cold receptor TRPM8; listed as menthane carboxylic acid-N-(4-methoxyphenyl)-amide): one of the strongest cooling substances; cooling duration [5]: under one hour
CC=Cc1ccc(OC)cc1 [anethole] |  |  |  | neutralized | 
